# Data from publication PMC4911353, “Pharmacologic Inhibition of Host Phosphodiesterase-4 Improves Isoniazid-Mediated Clearance of Mycobacterium tuberculosis” (Frontiers in Immunology, 2016).
# Test system: Mtb-infected mouse lungs
# Test: Genome-wide lung transcriptome (microarray, IPA network/GO analysis) of Mtb-infected mice
# Assay type: in vivo
# Details: TNF-a regulon network
structure (smiles),measurement,value
"CCOc1cc([C@@H](CS(C)(=O)=O)N2Cc3cccc(NC(=O)C4CC4)c3C2=O)ccc1OC [CC-11050, N-[2-[(1S)-1-(3-ethoxy-4-methoxyphenyl)-2-(methylsulfonyl)ethyl]-2,3-dihydro-3-oxo-1H-isoindol-4-yl]-(9Cl) cyclopropanecarboxamide]",ENTPD5 expression,0
same,ERCC1 expression,0
same,ERG expression,0
same,ESM1 expression,0
same,FABP1 expression,0
same,FABP4 expression,0
same,FBL expression,0
same,FBXO32 expression,0
same,FCER1G expression,0
same,FCER2 expression,0
same,FGF2 expression,1.266
same,FGF10 expression,0
same,FGF18 expression,0
same,FGFRL1 expression,0
same,FMO1 expression,0
same,FN1 expression,0
same,FNBP1 expression,0
same,FOXO4 expression,0
same,FPR1 expression,0
same,FUT4 expression,0
same,GAB1 expression,0
same,GBP2 expression,0
same,GCLM expression,0
same,GHR expression,0
same,GNAI1 expression,0
same,GNB4 expression,0
same,GNL1 expression,0
same,GOSR2 expression,0
same,GPD1 expression,0
same,GPR126 expression,0
same,GPR176 expression,0
same,GRIA1 expression,0
same,GRN expression,0
same,GSTM2 expression,0
same,GSTT1 expression,1.249
same,GUSB expression,0
same,Gbp2 expression,0
same,Gbp4 expression,0
same,Gbp6 (includes others) expression,0
same,Gsta4 expression,0
same,H2-Q4 expression,0
same,HAPLN1 expression,0
same,HERC1 expression,0
same,HES1 expression,0
same,HEXB expression,0
same,HIF1A expression,0
same,HIPK3 expression,0
same,HIVEP1 expression,0
same,HK2 expression,0
same,HK3 expression,0
same,HLA-B expression,0
same,HLA-C expression,0
same,HLA-DRA expression,0
same,HLA-E expression,0
same,HLA-F expression,0
same,HMGN2 expression,0
same,HPGD expression,0
same,HPGDS expression,0
same,HPRT1 expression,0
same,HSD3B2 expression,0
same,HSD11B1 expression,1.622
same,ID1 expression,1.521
same,IDH2 expression,0
same,IDO1 expression,0
same,IFIH1 expression,0
same,IFIT1B expression,0
same,IFNAR2 expression,0
same,IGFBP5 expression,0
same,IGFBP6 expression,0
same,IL1RN expression,0
same,IL2RA expression,0
same,IL10RA expression,0
same,IL17RD expression,0
same,IL18BP expression,0
same,IL21R expression,0
same,IL21 expression,0
same,INHBA expression,0
same,IRF1 expression,0
same,IRF5 expression,0
same,IRF7 expression,0
same,IRF8 expression,0
same,IRG1 expression,0
same,ISG15 expression,0
same,ITGA4 expression,0
same,ITGAL expression,0
same,ITGAM expression,0
same,ITGB2 expression,0
same,ITGB7 expression,0
same,Ifi204 (includes others) expression,0
same,KCNJ1 expression,0
same,KDR expression,0
same,KIF20A expression,0
same,KITLG expression,0
same,KLF7 expression,1.276
same,KLF10 expression,1.476
same,KRT23 expression,0
same,KYNU expression,0
same,LAMP3 expression,0
same,LCAT expression,0
same,LCN2 expression,0
same,LEP expression,0
same,LGALS12 expression,0
same,LITAF expression,0
same,LOC653486/SCGB1C1 expression,0
same,LOX expression,1.533
same,LPL expression,0
same,LRRC8C expression,0
same,LTB expression,0
same,LXN expression,0
same,LYVE1 expression,1.461
same,MAN1C1 expression,0
same,MAP2K3 expression,1.176
same,MAP4K4 expression,-1.132
same,MAPKAP1 expression,0
same,MARCKSL1 expression,0
same,MCL1 expression,0
same,MCM3 expression,0
same,MEFV expression,0
same,MEOX1 expression,0
same,MEOX2 expression,0
same,MMP7 expression,1.207
same,MMP8 expression,0
same,MMP13 expression,0
same,MMP16 expression,0
same,MMP28 expression,0
same,MPC1 expression,0
same,MSR1 expression,0
same,MUC4 expression,0
same,MVP expression,0
same,MYO9B expression,0
same,NAGLU expression,0
same,NAIP expression,0
same,NAMPT expression,0
same,NCAM1 expression,0
same,NCF2 expression,0
same,NCOA2 expression,0
same,NEDD9 expression,-1.086
same,NFATC1 expression,0
same,NFKB2 expression,0
same,NFKBIA expression,0
same,NFKBIE expression,0
same,NFKBIZ expression,-1.15
same,NFRKB expression,0
same,NME3 expression,1.1811
same,NNMT expression,0
same,NPM3 expression,0
same,NPPA expression,0
same,NR4A1 expression,0
same,NR4A3 expression,0
same,NRP1 expression,0
same,NTN1 expression,0
same,NUAK1 expression,0
same,NUAK2 expression,0
same,Nppb expression,0
same,OAS1 expression,0
same,OAS2 expression,0
same,OAS3 expression,0
same,OASL expression,0
same,OCLN expression,0
same,OGN expression,1.2
same,OLFML2B expression,0
same,OLR1 expression,0
same,P2RY6 expression,0
same,PAFAH2 expression,0
same,PC expression,0
same,PCBP2 expression,0
same,PCDH7 expression,0
same,PCK1 expression,0
